{"source": "patent US12018281B2", "about": "“Cardiomyocyte maturation promoter” (Kyoto University, priority 2018, dated 2024)"}
{"system": "cardiomyocytes derived from double knock-in human iPS cell lines (EmGFP at TNNI1, mCherry at TNNI3)", "assay": "TNNI3-mCherry reporter expression by anti-mCherry immunostaining and high contents screening (Experimental Example 1)", "format": "cell-based", "details": "1 μM test compound added on 3rd and 6th culture days, measured on 8th culture day; Alexa 647 (anti-mCherry); average of n=3; control well (no addition) 797", "description": "(§1) For detection of cardiomyocyte maturation, double knock-in human iPS cell lines, in which reporter protein sequences, EmGFP (Sequence Number 1) and mCherry (Sequence Number 2) were inserted into gene loci for TNNI1 and TNNI3, respectively, were prepared (the human iPS cells were prepared from episomal vector (loaded gene; OCT3/4, KLF4, SOX2, L-MYC, LIN28, mouse p53DD) using PBMC (LP_167, Sample ID:20130318) purchased from CTL (reference literature; Okita K, et al. Stem Cells. 2012 Nov. 29. doi: 10.1002/stem.1293)).\n(§2) The maintenance culture of the above-mentioned reporter iPS cell lines was carried out by a conventional method (Okita K, et al. Stem Cells. 2012 Nov. 29. doi: 10.1002/stem.1293).\nFor differentiation induction into cardiomyocytes, the reporter iPS cell lines were treated with 0.5×TrypLE select (Life Technologies, diluted in ½ with 0.5 mM EDTA/PBS) for 4 to 5 minutes, and the cells were exfoliated using a cell scraper (IWAKI), and then dissociated into the single cell by pipetting. The medium was removed by centrifugation (1,000 rpm, 5 min), and the obtained cells were seeded on a bioreactor (ABLE) by 1×10^7 cells per 30 mL of the bioreactor, and then cultured in a medium prepared by adding 1% L-glutamine, transferrin 150 μg/mL, ascorbic acid 50 μg/mL (Sigma), monothioglycerol 4×10^−4 M, 10 μM Rock inhibitor (Y-27632), 2 ng/mL BMP4 (R&D) and 0.5% Matrigel (Growth Factor Reduced) to a medium after removal of solution C from StemFit AK02 (AJINOMOTO AK02, 400 mL of solution A and 100 mL of B solution, total 500 mL), at 37° C., under 5% oxygen condition (55 rpm, stirred suspension culture method) to form embryoid bodies (0 day).\nNext day (1st day), 9 μL (final concentration 3 ng/mL) of […], 15 μL (final concentration 5 ng/mL) of 10 μg/mL bFGF and […] (final concentration 10 ng/mL) of 10 μg/mL BMP4 were added to the bioreactor, and the cells were cultured at 37° C. for additional 2 days, under 5% oxygen condition.\nThen (3rd day), the obtained embryoid bodies were collected in a 50 mL centrifuge tube, and then subjected to centrifugation (200 g, 1 min). The medium was removed, and the embryoid bodies were cultured in a medium prepared by adding 1% L-glutamine, transferrin 150 μg/mL, ascorbic acid 50 μg/mL (Sigma), monothioglycerol 4×10^−4 M, 10 ng/mL VEGF, 1 μM IWP-3, 0.6 μM dorsomorphin and 5.4 μM SB431542 to a medium after removal of solution C from StemFit AK02 (AJINOMOTO AK02, 400 mL of solution A and 100 mL of B solution, total 500 mL), at 37° C. for 3 days, under 5% oxygen condition (55 rpm, stirred suspension culture method).\nThen (6th day), the bioreactor was left to stand to precipitate the embryoid bodies, and 80 to 90% of the medium was removed. A medium prepared by adding 1% L-glutamine, transferrin 150 μg/mL, ascorbic acid 50 μg/mL (Sigma), monothioglycerol 4×10^−4 M and 5 ng/mL VEGF to a medium after removal of solution C from StemFit AK02 (AJINOMOTO AK02, 400 mL of solution A and 100 mL of B solution, total 500 mL) was added to the bioreactor so that the total volume became 30 mL, and the embryoid bodies were cultured for 8 days, at 37° C., under 5% oxygen condition (55 rpm, stirred suspension culture method). During the culture, the medium was replaced with a medium under the same conditions every 2 to 3 days.\n14th Day after the start of the differentiation induction, the embryoid bodies were treated with 2 mg/mL collagenase type I (Sigma) for 2 hr, and then with 0.25% trypsin/EDTA (Invitrogen) for 10 min. 50% FBS/IMDM (Thermo Fisher Science) was added thereto, and the embryoid bodies were dissociated into the single cell by pipetting, and then subjected to centrifugation (1,000 rpm, 5 minutes). […]"}
{"compound": "COc1ccc(/C=C\\c2cc(OC)c(OC)c(OC)c2)cc1O", "note": "[Example No. 1, 2-methoxy-5-((Z)-2-(3,4,5-trimethoxyphenyl)vinyl)phenol]", "average fluorescent intensity (at 1 μM)": 1381}
{"compound": "CCn1nnc2cc(COC(=O)Nc3sc(-c4ccc(C)cc4OC)nc3C)ccc21", "note": "[Example No. 2, (1-ethyl-1H-benzotriazol-5-yl)methyl (2-(2-methoxy-4-methylphenyl)-4-methyl-1,3-thiazol-5-yl)carbamate]", "average fluorescent intensity (at 1 μM)": 1331}
{"compound": "CC[C@]1(O)C[C@H]2CN(CCc3c([nH]c4ccccc34)[C@@](C(=O)OC)(c3cc4c(cc3OC)N(C=O)[C@H]3[C@@](O)(C(=O)OC)[C@H](OC(C)=O)[C@]5(CC)C=CCN6CC[C@]43[C@@H]65)C2)C1", "note": "[Example No. 3, (2′beta)-22-oxovincaleukoblastine]", "average fluorescent intensity (at 1 μM)": 1710}
{"compound": "Clc1ccc(CCc2nc3cc(-c4ccco4)cnc3[nH]2)cc1", "note": "[Example No. 4, 2-(2-(4-chlorophenyl)ethyl)-6-(2-furyl)-3H-imidazo[4,5-b]pyridine]", "average fluorescent intensity (at 1 μM)": 1125}
{"compound": "COc1ccc(C[C@H](NC(=O)[C@H](C)NC(=O)CN2CCOCC2)C(=O)N[C@@H](Cc2ccccc2)C(=O)[C@]2(C)CO2)cc1", "note": "[Example No. 5, 4,5-anhydro-1,2-dideoxy-4-methyl-2-((N-(morpholin-4-ylacetyl)-L-alanyl-O-methyl-L-tyrosyl)amino)-1-phenyl-L-threo-pent-3-ulose]", "average fluorescent intensity (at 1 μM)": 1791}
{"compound": "COc1cccc(-c2cc3ccc(N(C)C)cc3c(N)n2)c1", "note": "[Example No. 6, 3-(3-methoxyphenyl)-N7,N7-dimethylisoquinoline-1,7-diamine]", "average fluorescent intensity (at 1 μM)": 1305}
{"compound": "COC(=O)c1c(C)[nH]c(C)c1C(=O)c1ccccc1Cc1ccccc1", "note": "[Example No. 7, methyl 4-(2-benzylbenzoyl)-2,5-dimethyl-1H-pyrrole-3-carboxylate]", "average fluorescent intensity (at 1 μM)": 1294}
{"compound": "Nc1ccc(-c2nc3cc(-c4nc5cc(N)ccc5[nH]4)ccc3[nH]2)cc1", "note": "[Example No. 8, 2′-(4-aminophenyl)-1H,1′H-2,5′-bibenzimidazol-5-amine]", "average fluorescent intensity (at 1 μM)": 1150}
{"system": "embryoid bodies/cardiomyocytes derived from double knock-in human iPS cell lines (EmGFP at TNNI1, mCherry at TNNI3)", "assay": "mCherry expression in TNNI1+ cells by flow cytometry (Experimental Example 2)", "format": "cell-based", "details": "40 nM, 10th to 16th day of differentiation, controls 7.4 (no addition), 10.2 (0.1% DMSO)", "description": "as §1, §2\nFor differentiation induction into cardiomyocytes, the reporter iPS cell lines were treated with 0.5×TrypLE select (Life Technologies, diluted in ½ with 0.5 mM EDTA/PBS) for 4 to 5 minutes, and the cells were exfoliated using a cell scraper (IWAKI), and then dissociated into the single cell by pipetting. […]", "units": {"mCherry+ (%)": "%"}}
{"compound": "CCn1nnc2cc(COC(=O)Nc3sc(-c4ccc(C)cc4OC)nc3C)ccc21", "note": "[Example No. 2, (1-ethyl-1H-benzotriazol-5-yl)methyl (2-(2-methoxy-4-methylphenyl)-4-methyl-1,3-thiazol-5-yl)carbamate]", "mCherry+ (%)": 36.1}
